This note sets out measurements from US20080287398A1, “COLD MENTHOL RECEPTOR-1 ANTAGONISTS” (priority 2007, published 2008).

A word on the IC50: it is the point on the concentration scale where inhibition reaches its midpoint. By ED50 is commonly meant the midpoint of the dose-response relation.

The target of experiment [1] is T1, canine TRPM8 (Canis lupus familiaris, UniProt Q1A7N1).
T1 construct: expressed in transfected cells
As to the kind of experiment: In vitro canine TRPM8 functional assay (Ca2+-sensitive dye, FLIPR/FDSS, icilin activation). The experiment is classed as cell-based. Particulars: HEK293 cells expressing canine TRPM8, icilin activation; for % I (0.5 μM): 0.5 μM compound; for IC50: eight-point dose-response; for % I (1 μM): 1 μM compound. The essentials:
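Icilin challenge (final concentration producing ~80% of maximal response) followed a 5 min compound exposure in canine TRPM8-HEK293 cells dye-loaded with Calcium 3. Intracellular Ca2+ was read on FLIPR/FDSS. EC50 and IC50 values came from nonlinear sigmoidal dose-response fits of basal-subtracted, percent-of-maximum data averaged over quadruplicates.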

The subject of another experiment is Sprague-Dawley rats. As to the kind of experiment: CFA-induced paw radiant heat hypersensitivity. The experiment is classed as in vivo, rat. Particulars: for inhibition in vivo at 30 mg/kg: read-out: % Reversal. The method, then:
Intraplantar injection of Complete Freund's Adjuvant (CFA) in rodents results in a long-lasting inflammatory reaction, characterized by a pronounced hypersensitivity to both thermal and mechanical stimuli. This hypersensitivity peaks between 24-72 hours following injection and can last for several weeks. […] This paradigm also may be conducted with a multiple dosing or a prophylactic dosing regime designed to alter the course of hyperalgesia development. This test predicts the analgesic, anti-allodynic and antihyperalgesic effect of numerous effective clinical agents, including NSAIDS such as acetaminophen, aspirin and ibuprofen, and opioids such as morphine.
Each rat was placed in a test chamber on a warm glass surface and allowed to acclimate for approximately 10 minutes. A radiant thermal stimulus (beam of light) was then focused through the glass onto the plantar surface of each hind paw in turn. The thermal stimulus was automatically shut off by a photoelectric relay when the paw was moved or when the cut-off time was reached (20 seconds for radiant heat at ˜5 Amps). An initial (baseline) response latency to the thermal stimulus was recorded for each animal prior to the injection of CFA. Twenty-four hours following intraplantar CFA injection, the response latency of the animal to the thermal stimulus was then re-evaluated and compared to the animal's baseline response time. […] Immediately following the post-CFA latency assessment, test compound or vehicle (usually Solutol, hydroxypropyl methylcellulose, hydroxypropyl beta-cyclodextrin or PEG-400) was administered i.p. or p.o. to rats. […] The percent reversal (% R) of hypersenstivitiy was calculated according to the following formula:
% Reversal=(Treatment Response-CFA Response)/(Baseline Response-CFA Response)×100.

Experiment [2] has as its target T1, canine TRPM8. As to the kind of experiment: TRPM8 patch clamp assay (whole-cell, HEK293 cells). The experiment is classed as cell-based. The following applies: HEK293 cells stably transfected with canine TRPM8, 100 μM menthol, 22° C. On the procedure: For patch clamp experiments, HEK293 cells stably transfected with canine TRPM8 were cultured in DMEM supplemented with 10% fetal bovine serum, 100 units/ml penicillin, 100 μg/ml streptomycin and 1 mg/ml G418. Cells were maintained at 37° C. and in 5% CO2.
The extracellular solution contained (in mM): NaCl, 132; EGTA, 1; KCl, 5.4; MgCl2, 0.8; HEPES, 10; glucose, 10; pH=7.4. Recordings were performed using the conventional whole-cell patch clamp technique, 1-2 days after plating cells onto glass coverslips at densities appropriate for single cell recording. Currents were amplified by a patch clamp amplifier and filtered at 2 kHz (Axopatch 200B, Molecular Devices, Union City, Calif.). Menthol (100 μM) was applied to the cell at 0.5 ml/min via a gravity-fed perfusion system. Recordings involving menthol activation were performed at 22° C.
In experiments where temperatures were varied, temperature ramps were generated by cooling the perfusate in an in-line cooler (Model SC-20, Warner Instruments, Hamden, Conn.) controlled by a temperature controller (Model CL-100, Warner Instruments). The temperature in the vicinity of the recorded cell was measured with a custom-made miniature thermo-microprobe connected to a monitoring thermometer (Model TH-8, Physitemp, Clifton, N.J.), and sampled using Digidata 1322A and pClamp 9.0 (Molecular Devices), as were the currents concurrently measured in the whole-cell patch clamp mode. The current was continuously sampled (at 100 Hz) at a holding potential of −60 mV.
Compounds were diluted from 10 mM DMSO stocks (stored at −20° C.) into an extracellular solution either containing 100 μM menthol or subjecting to cooling. Increasing concentrations of a compound were applied to a cell in a cumulative manner and concentration-dependent responses were measured after steady-state activation was achieved by either 100 μM menthol or cooling to 10° C. A saturating concentration of a reference antagonist was applied at the end of an experiment (either in the presence of 100 μM menthol or 10° C. temperature) to establish the baseline from which all the other measurements were subtracted.
Percentage inhibition by a compound was calculated as follows: 100×(1−Icomp/I0); where Icomp and I0 are steady-state current amplitudes in either the presence or absence of a concentration of the compound.
(In patch-clamp work, channel activity is measured electrically.)

Setting [3] is: rat, 30 mg/kg p.o., time 2 h (printed 2 h or 2).
Setting [4] is: HEK293, read-out: % I (1 μM), 1 μM compound.
Where [5] appears, read: HEK293, read-out: % I (0.5 μM), 0.5 μM compound.

Where “and” joins values, the source holds several entries; their conditions need not be identical. Equal entries are not always repeated. Where two headings read alike, the source gives them in different places.

T1 sequence (Q1A7N1 1-1104): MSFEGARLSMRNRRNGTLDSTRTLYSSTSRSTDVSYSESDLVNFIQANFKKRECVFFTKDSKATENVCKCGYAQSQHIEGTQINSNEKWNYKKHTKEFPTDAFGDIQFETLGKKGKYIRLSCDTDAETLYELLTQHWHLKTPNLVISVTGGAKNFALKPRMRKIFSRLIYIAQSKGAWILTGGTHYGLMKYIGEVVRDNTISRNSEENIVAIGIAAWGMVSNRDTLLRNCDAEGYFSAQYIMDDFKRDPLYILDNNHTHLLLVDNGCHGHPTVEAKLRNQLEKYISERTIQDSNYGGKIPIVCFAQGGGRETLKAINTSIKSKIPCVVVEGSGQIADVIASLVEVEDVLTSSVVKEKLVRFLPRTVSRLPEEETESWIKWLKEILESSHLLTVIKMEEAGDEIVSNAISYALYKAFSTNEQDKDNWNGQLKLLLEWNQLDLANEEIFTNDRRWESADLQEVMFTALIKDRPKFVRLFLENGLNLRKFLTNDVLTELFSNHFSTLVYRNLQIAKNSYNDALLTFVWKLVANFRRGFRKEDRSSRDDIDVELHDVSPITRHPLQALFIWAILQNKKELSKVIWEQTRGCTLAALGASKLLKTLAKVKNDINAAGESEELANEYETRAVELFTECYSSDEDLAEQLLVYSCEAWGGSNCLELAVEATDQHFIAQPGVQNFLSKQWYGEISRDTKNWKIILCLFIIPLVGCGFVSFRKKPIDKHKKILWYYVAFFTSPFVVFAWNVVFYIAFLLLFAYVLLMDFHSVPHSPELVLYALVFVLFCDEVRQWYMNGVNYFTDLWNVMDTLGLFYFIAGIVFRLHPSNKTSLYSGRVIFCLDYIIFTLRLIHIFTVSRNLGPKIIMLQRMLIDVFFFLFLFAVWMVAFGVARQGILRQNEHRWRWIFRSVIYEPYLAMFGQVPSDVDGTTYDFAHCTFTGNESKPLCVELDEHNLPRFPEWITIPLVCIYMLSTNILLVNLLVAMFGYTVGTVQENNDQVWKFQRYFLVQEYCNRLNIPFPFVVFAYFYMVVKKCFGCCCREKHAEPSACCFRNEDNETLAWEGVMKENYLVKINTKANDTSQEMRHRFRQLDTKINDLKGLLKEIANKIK

Consider `CCOP(=O)(OCC)C(Cc1ccc(F)c(Cl)c1)c1sc2ccccc2c1Br` (racemic) [Cpd 244], for which, on canine TRPM8 [1], the “% I (0.5 μM)” value was determined as 103%. Further, the half-maximal inhibitory concentration (IC50) at canine TRPM8 [1] (read-out: IC50) amounted to 0.028 µM. Moreover, the “% Reversal” value in the experiment on Sprague-Dawley rats (setting [3]) is 45%.

`CCOP(=O)(OCC)C(Cc1ccc(F)c(C(F)(F)F)c1)c1sc2ccccc2c1Cl` (racemic) [Cpd 298]: the “% I (0.5 μM)” value on canine TRPM8 [1] was 99%. Further, at canine TRPM8 [1] (read-out: IC50), the IC50 is 0.085 µM. For the same compound, the “% Reversal” value in the experiment on Sprague-Dawley rats (rat, 30 mg/kg p.o., time 1 h) amounted to 20%.

For `CCOP(=O)(OCC)C(Cc1ccc(SC)cc1)c1sc2ccccc2c1Cl` (racemic) [Cpd 299], the “% I (0.5 μM)” value at canine TRPM8 [1] is on record as 101%. At canine TRPM8 [1] (read-out: IC50), the IC50 came out at 0.141 µM. Moreover, the “% Reversal” value with Sprague-Dawley rats (rat, 30 mg/kg p.o., time 1 h) stood at 23%.

As for `CC(C)OP(=O)(OC(C)C)C(Cc1ccc(F)c(F)c1)c1sc2ccccc2c1Cl` (stereo not shown) [Cpd 12, [1-(3-Chloro-benzo[b]thiophen-2-yl)-2-(3,4-difluoro-phenyl)-ethyl]-phosphonic acid diisopropyl ester], on canine TRPM8 [1] (setting [4]), the inhibition at 1 µM stood at 100%. At canine TRPM8 [1] (IC50 (μM)), the concentration for half-maximal inhibition (IC50) is 0.043 µM and 0.13 µM. Further, in the experiment with Sprague-Dawley rats (Rattus norvegicus, ip, 1 h), the inhibition in vivo at 30 mg/kg stood at 105%.

On to `CCOP(=O)(OCC)C(Cc1ccc(F)c(F)c1)c1sc2ccccc2c1Br` (stereo not shown) [Cpd 127, [1-(3-Bromo-benzo[b]thiophen-2-yl)-2-(3,4-difluoro-phenyl)-ethyl]-phosphonic acid dethyl ester], for which the inhibition at 1 µM on canine TRPM8 [1] (setting [4]) came out at 100%. On canine TRPM8 [1] (IC50 (μM)), this compound registered a half-maximal inhibitory concentration (IC50) of 0.052 µM. Also, the ED50 with Sprague-Dawley rats (Rattus norvegicus, po) stood at 5.2 mg/kg; in the experiment with Sprague-Dawley rats (Rattus norvegicus, po, 1 h, read-out: oral ED50), 5.2 mg/kg. Further, the inhibition in vivo at 30 mg/kg in the experiment with Sprague-Dawley rats (Rattus norvegicus, po, 1 h) amounted to 88%.

Regarding `CCOP(=O)(OCC)C(Cc1cccc(Cl)c1)c1sc2ccccc2c1Br` (stereo not shown) [Cpd 137, [1-(3-Bromo-benzo[b]thiophene-2-yl)2-(3-chloro-phenyl)-ethyl]-phosphonic acid diethyl ester], the inhibition at 0.5 µM at canine TRPM8 [1] (setting [5]) is 102%. The compound further gave a half-inhibitory concentration (IC50) against canine TRPM8 [1] (IC50 (μM)) of 0.024 µM. The inhibition in vivo at 30 mg/kg with Sprague-Dawley rats (Rattus norvegicus, po, 1 h) was 34%.

Turning to `CCOP(=O)(OCC)C(Cc1ccc(OC(F)(F)F)cc1)c1sc2ccccc2c1Br` (stereo not shown) [Cpd 155, [1-(3-Bromo-benzo[b]thiophen-2-yl)-2-(4-trifluoromethoxy-phenyl)-ethyl]-phosphonic acid diethyl ester], the inhibition at 0.5 µM at canine TRPM8 [1] (setting [5]) is 104%. Also, the concentration for half-maximal inhibition (IC50) is 0.046 µM and 0.12 µM and 0.09 µM on canine TRPM8 [1] (IC50 (μM)); 12.5 nM against canine TRPM8 [2]. Also, in the experiment with Sprague-Dawley rats (Rattus norvegicus, po, 1 h), the inhibition in vivo at 30 mg/kg stood at 138%.

As to `CC(C)OP(=O)(OC(C)C)C(Cc1ccc(Cl)c(F)c1)c1sc2ccccc2c1Br` (stereo not shown) [Cpd 190], the “% I (0.5 μM)” value at canine TRPM8 [1] was 104%. Further, the IC50 at canine TRPM8 [1] (read-out: IC50) was found to be 0.102 µM. In the experiment on Sprague-Dawley rats (rat, 30 mg/kg p.o., time 1 h), the “% Reversal” value is on record as 45%.

With `CC(C)OP(=O)(OC(C)C)C(Cc1ccc(F)cc1)c1sc2ccccc2c1Br` (stereo not shown) [Cpd 197], at canine TRPM8 [1], the “% I (0.5 μM)” value worked out at 102% and the “% I (1 μM)” value was 100%. Also, the “% Reversal” value with Sprague-Dawley rats (setting [3]) was found to be 23%.

For `CCOP(=O)(OCC)C(Cc1ccc(F)cc1)c1sc2ccccc2c1Br` (stereo not shown) [Cpd 238, [1-(3-Bromo-benzo[b]thiophen-2-yl)-2-(4-fluoro-phenyl)-ethyl]-phosphonic acid diethyl ester], on canine TRPM8 [1] (setting [5]), the inhibition at 0.5 µM amounted to 104%. Besides, the results for the 50% inhibitory concentration (IC50) against canine TRPM8 [1] (IC50 (μM)) and on canine TRPM8 [2] were 0.044 µM and 0.53 nM, respectively. The inhibition in vivo at 30 mg/kg in the experiment on Sprague-Dawley rats (Rattus norvegicus, po, 2 h) worked out at 56%.

With `CC(C)OP(=O)(OC(C)C)C(Cc1ccc(F)c(C(F)(F)F)c1)c1sc2ccccc2c1Br` (stereo not shown) [Cpd 241, [1-(3-Bromo-benzo[b]thiophen-2-yl)-2-(4-fluoro-3-trifluoromethyl-phenyl)-ethyl]-phosphonic acid diisopropyl ester], at canine TRPM8 [1] (HEK293, 0.5 μM compound, read-out: % I (0.5 μM)), the inhibition at 0.5 µM amounted to 102%. The inhibition at 1 µM on canine TRPM8 [1] (HEK293, 1 μM compound, read-out: % I (1 μM)) was 103%. The IC50 at canine TRPM8 [1] (read-out: IC50) turned out to be 0.038 µM; at canine TRPM8 [2] (IC50, mode of activation Menthol (100 μM)), 1.6 nM. The inhibition in vivo at 30 mg/kg in the experiment with Sprague-Dawley rats (po, rat, 30 mg/kg p.o., time 1 h) is 72%.

In the case of `CC(C)OP(=O)(OC(C)C)C(Cc1cc(C(F)(F)F)ccc1F)c1sc2ccccc2c1Br` (stereo not shown) [Cpd 335], on canine TRPM8 [1], the “% I (0.5 μM)” value was 102%. For the same compound, the half-inhibitory concentration (IC50) at canine TRPM8 [1] (read-out: IC50) is 0.035 µM. Further, in the experiment with Sprague-Dawley rats (rat, 30 mg/kg p.o., time 1 h), the “% Reversal” value is 0%.

Regarding `CC(C)OP(=O)(OC(C)C)C(Cc1ccc(C(F)(F)F)cc1)c1sc2ccccc2c1Br` (stereo not shown) [Cpd 336], on canine TRPM8 [1], the “% I (0.5 μM)” value is recorded as 102%. The 50% inhibitory concentration (IC50) on canine TRPM8 [1] (read-out: IC50) was determined as 0.043 µM. Further, in the experiment with Sprague-Dawley rats (rat, 30 mg/kg p.o., time 1 h), the “% Reversal” value stood at 64%.

Regarding “(R)-[1-(3-Bromo-benzo[b]thiophen-2-yl)-2-(4-fluoro-phenyl)-ethyl]-phosphonic acid diisopropyl ester [Cpd 240]”, the “% I (0.5 μM)” value at canine TRPM8 [1] is 98% and 77%.

With “(R)-[1-(3-Bromo-benzo[b]thiophen-2-yl)-2-(4-trifluoromethoxy-phenyl)-ethyl]-phosphonic acid diisopropyl ester [Cpd 237]”, the “% I (0.5 μM)” value at canine TRPM8 [1] was 96% and 70%.

With “[2-(3,4-Difluoro-phenyl)-1-(3-methyl-benzo[b]thiophene-2-yl)-ethyl]-[3-(4-methoxy-phenyl)-propyl]-phosphonic acid ethyl ester [Cpd 135]”, the “% I (1 μM)” value on canine TRPM8 [1] was 90%. At canine TRPM8 [1] (read-out: IC50), the IC50 was 0.41 µM.

For “[2-(3,4-Difluoro-phenyl)-1-(3-methyl-benzo[b]thiophene-2-yl)-ethyl]-[3-(4-methoxy-phenyl)-propyl]-phosphonic acid ethyl ester [Cpd 136]”, on canine TRPM8 [1], the “% I (1 μM)” value stood at 91%. At canine TRPM8 [1] (read-out: IC50), the half-inhibitory concentration (IC50) came out at 0.42 µM.

As to “[2-(3,4-Difluoro-phenyl)-1-(3-methyl-benzo[b]thiophene-2-yl)-ethyl]-methyl-phosphonic acid ethyl ester [Cpd 30]”, the “% I (1 μM)” value at canine TRPM8 [1] was 100% and 99%. The IC50 on canine TRPM8 [1] (read-out: IC50) was 0.12 µM and 0.2 µM.

Turning to “[2-(3,4-Difluoro-phenyl)-1-(3-methyl-benzo[b]thiophene-2-yl)-ethyl]-methyl-phosphonic acid ethyl ester [Cpd 106]”, on canine TRPM8 [1], the “% I (1 μM)” value came to 32%. Besides, the IC50 at canine TRPM8 [1] (read-out: IC50) stood at 1.26 µM.
